Values of other authors as cited in US20070275949A1, “Benzazepine Derivatives and Methods of Prophylaxis or Treatment of 5Ht2C Receptor Associated Diseases” (Arena Pharmaceuticals, Inc., priority 2003, published 2007).

System: guinea pigs
Conditions: in vivo, repeat administration

Compound: C[C@H](N)Cc1cccc(C(F)(F)F)c1 [dexnorfenfluramine]
- amyloid precursor protein (APPs) secretion: stimulated
- levels of Aβ production: reducing
